Patent publication US12070458B2, “Therapeutic agent composition and method of use, for treatment of mild congnitive impairment, depression, and psychological disorders” (priority 2018, dated 2024)

What was measured:
[1] = tested on: patients with major depressive disorder; assay: Double-blind, randomized, placebo-controlled, active reference study in patients with major depressive disorder; assay type: in vivo, human; conditions: for change from baseline in MADRS total score, Mean ± SD / MADRS total score, Difference to Placebo: week 6, venlafaxine 75 mg/d orally
Source text: This randomized, double-blind, fixed-dose, placebo-controlled, active reference study recruited 32 randomized patients in accordance with the principles of Good Clinical Practice [ICH (1996). Harmonized Tripartite Guideline E6: Guideline for Good Clinical Practice (http://www.fda.gov/downloads/drugs/guidancecomplianceregulatoryinformation/gui dances/ucm073122.pdf)] and the Declaration of Helsinki [WMA (1964). Ethical Principles for Medical Research Involving Human Subjects (http://www.wma.net/en/30publications/10policies/b3/). World Medical Association.] Local ethics committees approved the study design and eligible patients gave their written informed consent before participating.
Eligible patients were randomized equally (1:1:1:1) to one of the four treatment arms for a 6-week double-blind treatment period. Randomized patients were given 1-week wallet cards at each visit and were instructed to take two capsules per day, orally, at the same time every day (preferably in the morning). NA-831 was dosed at 20 mg/day or 40 mg/d for 6 week and venlafaxine at 75 mg/d over 6-week treatment period. Efficacy and tolerability were assessed at screening, baseline and after 1, 2, 3, 4, 5, and 6 week. Patients were contacted for a safety follow-up 4 week after the completion visit.
Patients with MDD presenting with a current major depressive episode according to DSM-IV-TR criteria were included in the study if they were an outpatient of either sex, aged from 20 yr to 65 yr, (mean=39.7±8.5) (with a Montgomery—Åsberg Depression Rating Scale (MADRS) (Montgomery & Åsberg, 1979) total score ≥30 at the baseline visit. [Montgomery S Åsberg M (1979). A new depression scale designed to be sensitive to change. British Journal of Psychiatry 134 382-389.https://doi.org/10.1192/bjp.134.4.382]
Patients were evaluated using the MADRS from baseline to week 6. Rater training was undertaken to increase inter-rater reliability, and was supervised by an experienced investigator. Only those investigators who had actively participated in rater training sessions prior to inclusion of patients into the study were allowed to rate patients. Patient ratings were assessed by the same investigator at each visit, whenever possible.
All safety analyses were based on the all-patients-treated set (APT), comprising all randomized patients who took at least one dose of study medication. All efficacy analyses were based on a modified intent-to-treat set (ITT)—the full-analysis set (FAS), comprising all patients in the […] who had at least one valid post-baseline MADRS total score assessment.
Four hypotheses were part of the primary efficacy analysis, which was fully adjusted for multiplicity using a hierarchical testing procedure at the 5% level of significance as long as the previous hypothesis was rejected. The order of testing was: no difference between the 20 mg dose vs. placebo at week 6, no difference between […] at week 6, no difference between 20 mg dose vs. placebo at week 1, and finally no difference between 40 mg dose vs. placebo at week 1. The statistical model was an analysis of covariance (ANCOVA) of the change from baseline in MADRS total score (FAS, LOCF) with treatment and site as fixed factors and the baseline MADRS score as a covariate. The primary efficacy analysis was repeated on observed cases (OC) data, using both an ANCOVA and a mixed model for repeated measurements (MMRM).
All adverse effects (AEs) (including any change in concurrent illnesses or new illnesses) either observed by the investigator or reported spontaneously by the patient were recorded. AEs were coded using the lowest level term according to the Medical Dictionary for Regulatory Activities, version 10.0. As a post-hoc analysis, the safety database was searched at preferred-term and verbatim-term level for possible suicide-related AEs, as described by the FDA [Laughren (2006). Memorandum on Suicidality. (http://www.fda.gov/ohrms/dockets/ac/06/briefing/2006-4272b1-01-fda.pdf)].

[2] = tested on: cerebellar microexplants (P4); assay: Glutamate induced neuronal death in cerebellar microexplants (P4); assay type: cell-based, Wistar rats
Method: Cerebellar Cell Culture Preparing and Coating of Cover Slips
Ten coverslips were placed into a large petri dish and washed in 70% alcohol for 5 minutes, then washed with Millipore H2O. The coverslips were air dried, then coated with Poly-D-Lysine (1 mg/ml stock solution in PBS, 90-100 μl) and incubated for 2 hours at 34° C.
Postnatal day 4 Wistar rats were used for the study. Rats were placed in ice for 1 minute, the heads were decapitated and the cerebellum removed on ice. Cerebellum tissue was placed in 1 ml of 0.65% glucose supplemented PBS (10 μl 65% stock D (+)glucose/1 ml PBS) in a large petri dish, chopped up into smaller sections and triturate with a 1 ml insulin syringe via a 23 G (0.4 mm) needle, and then squirted back into the glucose solution on the large petri dish. The tissue was sieved through (125 μm pore size gaze) and centrifuged (2 minutes at 60 g) two times for a medium exchange into serum-free BSA-supplemented START V medium (Biochrom). The second centrifugation step was done with 1 ml of START V medium. The microexplants were reconstituted into 500 μl of START V medium and put on ice.
Cultivation and Fixation of Cerebellar Cells
Two hours after PDL-coating, the slides were washed with Millipore H2O and air dried. Each slide was placed into a small 35 mm petri dish and 40 μl of START V/cell suspension added. The tissue was incubated for 2 hours at 34° C. (settlement period). START V-medium (1 ml) was then added to the petri dish and cultivated at 34° C./5% CO2/100% humidity for 48 hours. Cells were rinsed in PBS and then fixed for 2-3 minutes in increasing concentrations of paraformaldehyde (500 μl of 0.4% PFA was applied; then 1.2% PFA; then 3% PFA and finally 4% PFA—all fixation solutions contain 0.2% glutardialdehyde). Finally, the microexplants were rinsed in PBS.
(§1) 10 μl of toxin (L-glutamate-100 mM in Millipore water) was applied simultaneously with cPG (from bachem, 10 mM stock prepared in PBS and diluted to final concentrations between 1-100 nM) for Study 1. A delay in administration of cPG at 6 hours after glutamate treatment was performed for Study 2.
as §1, with “cyclic(tri(prolylglycyl)) (which was obtained from NeuroBiomed, San Jose, California),” for “cPG (from bachem,”, “cyclic(tri(prolylglycyl))” for “cPG”
as §1, with “cyclic Glycyl-2-Methyl Proline (obtained NeuroBiomed, San Jose California),” for “cPG (from bachem,”

[3] = tested on: 6-OHDA induced nigral-striatal lesion; assay: 6-OHDA induced nigral-striatal lesion, apomorphine-induced contralateral rotations; assay type: in vivo, Wistar rats; conditions: 1 mg (mg/kg) i.p. 2 hours post lesion; 7 days post-lesion, apomorphine 0.1 mg/kg; n=5; vehicle 290±18 or 292±21
Method: Twenty male Wistar rats (280-310 g) were used. After exposing the skull, 6-OHDA (8 μg in a base of 2 μl 0.9% saline containing 1% ascorbic acid) was administered into the right medial forebrain bundle (MFB) using co-ordinates AP +4.7 mm, R 1.6 mmv −8 mm under 3% halothane anaesthesia. 6-OHDA was injected through a 25G needle connected via a polyethylene catheter to a 100 μl Hamilton syringe. The 6-OHDA was infused by a microdialysis infusion pump at a rate of 0.5 μl/min. The needle was left in the brain for a further 3 minutes before being slowly withdrawn. The skin was sutured with 2.0 silk and the rats were allowed to recover from anaesthesia. The rats were housed in a holding room with free access to food and water at all times except during behavioural testing.
Cyclic PG was dissolved in saline. Four different doses of cPG (0, 0.1, 0.5, 1 mg/kg, Bachem) were administered intraperitoneally 2 hours post lesion.
At 7 days post-lesion, rats were injected with 0.1 mg/kg apomorphine and the number of contralateral rotations/hour was recorded and calculated using a computerised Rotameter (St Diego Instruments). Experimenter was blinded from the treatment groups.
Cyclic(tri(prolylglycyl)) was dissolved in saline solution. Four different doses of Cyclic(tri(prolylglycyl)) (0, 0.1, 0.5, 1 mg/kg, NeuroBiomed) were administered intraperitoneally 2 hours post lesion.
Cyclic Glycyl-2-Methyl Proline (cGMeP) was dissolved in saline solution. Four different doses of cGMeP (0, 0.1, 0.5, 1 mg/kg, NeuroBiomed) were administered intraperitoneally 2 hours post lesion.

| SMILES | patients with one or more AEs ([1]; 6-week treatment period, venlafaxine group) [%] | change from baseline in MADRS total score, Mean ± SD ([1]; LOCF, ANCOVA) | MADRS total score, Difference to Placebo ([1]; MMRM) | change from baseline in MADRS total score, Mean ± SD ([1]; MMRM) | MADRS total score, Difference to Placebo ([1]; MMRM, listed as venlafaxine) | MADRS total score, Difference to Placebo ([1]; OC, ANCOVA) | change from baseline in MADRS total score, Mean ± SD ([1]; OC, ANCOVA) | patients withdrawn due to AEs ([1]; venlafaxine group) | AEs reported by a majority of patients ([1]; venlafaxine group, 6 week) | improvement, recovery from glutamate induced neurotoxicity ([2]; 1-100 nM given 6 hours after the glutamate treatment, compared to vehicle) | reduction of glutamate induced neuronal death ([2]; administered simultaneously with glutamate, 1-100 nM, glutamate alone 85% loss of neurons) [%] | number of contralateral rotations/hour [3] [rotations/hour] |
| --- | --- | --- | --- | --- | --- | --- | --- | --- | --- | --- | --- | --- |
| COc1ccc(C(CN(C)C)C2(O)CCCCC2)cc1 (stereo not drawn) [Venlafaxine, reference compound] | 75 | −21.9 ± 1.0 | −8.1 ± 1.3 | −23.5 ± 0.9 | 5.6±1.3 | −5.6 ± 1.3 | −22.2 ± 0.9 | 2 (25%) patients (%) | nausea, severe headache loss of strength, blurred vision, chest pain, fast or irregular heartbeat and suicidal thoughts | – | – | – |
| CC12CCCN1C(=O)CNC2=O [cGMeP, (8aS)-Methyl-hexahydropyrrolo[1,2-a]pyrazine-1,4-dione] | – | – | – | – | – | – | – | – | – | approximately 58% | 63 | 134±69 |
